Laboratory results: the supplement of paper PMC13380429

Tests used:
Settings in all cases: 72 h
Caco-2 [1] = assay: cell viability relative to DMSO; higher = less toxic
Calu-3 [2] = assay: as above
HepG2 [3] = assay: as above
U2OS [4] = assay: as above
Vero E6 [5] = assay: as above
Caco-2 [6] = assay: relative viability EC50 (midpoint between 100% and the lowest measured viability); higher = less toxic
Calu-3 [7] = assay: as above
HepG2 [8] = assay: as above
U2OS [9] = assay: as above
Vero E6 [10] = assay: as above
Caco-2 [11] = assay: drug sensitivity score (DSS) for viability; higher = more toxic; extreme values may be limits of the assay
Calu-3 [12] = assay: as above
HepG2 [13] = assay: as above
U2OS [14] = assay: as above
Vero E6 [15] = assay: as above

Compound | cell viability (Caco-2 [1]; 1 nM) [%] | cell viability (Caco-2 [1]; 10 nM) [%] | cell viability (Caco-2 [1]; 100 nM) [%] | cell viability (Caco-2 [1]; 1000 nM) [%] | cell viability (Caco-2 [1]; 10000 nM) [%] | cell viability (Calu-3 [2]; 1 nM) [%] | cell viability (Calu-3 [2]; 10 nM) [%] | cell viability (Calu-3 [2]; 100 nM) [%] | cell viability (Calu-3 [2]; 1000 nM) [%] | cell viability (Calu-3 [2]; 10000 nM) [%] | cell viability (HepG2 [3]; 1 nM) [%] | cell viability (HepG2 [3]; 10 nM) [%] | cell viability (HepG2 [3]; 100 nM) [%] | cell viability (HepG2 [3]; 1000 nM) [%] | cell viability (HepG2 [3]; 10000 nM) [%] | cell viability (U2OS [4]; 1 nM) [%] | cell viability (U2OS [4]; 10 nM) [%] | cell viability (U2OS [4]; 100 nM) [%] | cell viability (U2OS [4]; 1000 nM) [%] | cell viability (U2OS [4]; 10000 nM) [%] | cell viability (Vero E6 [5]; 1 nM) [%] | cell viability (Vero E6 [5]; 10 nM) [%] | cell viability (Vero E6 [5]; 100 nM) [%] | cell viability (Vero E6 [5]; 1000 nM) [%] | cell viability (Vero E6 [5]; 10000 nM) [%] | relative viability EC50 (Caco-2 [6]) [µM] | relative viability EC50 (Calu-3 [7]) [µM] | relative viability EC50 (HepG2 [8]) [µM] | relative viability EC50 (U2OS [9]) [µM] | relative viability EC50 (Vero E6 [10]) [µM] | drug sensitivity score (Caco-2 [11]) | drug sensitivity score (Calu-3 [12]) | drug sensitivity score (HepG2 [13]) | drug sensitivity score (U2OS [14]) | drug sensitivity score (Vero E6 [15])
COc1cc(CN2CCN(c3ccc(F)cc3)CC2)cc(OC)c1OC [V-51] | 94.8 | 94.4 | 93.6 | 83.5 | 97.8 | 81.8 | 95.7 | 106 | 105 | 105 | 100 | 98.1 | 93.2 | 100 | 98.8 | 100 | 103 | 94.8 | 98.6 | 102 | 95.9 | 96.5 | 100 | 98.3 | 106 | > 10 | > 10 | > 10 | > 10 | > 10 | 0 | 0 | 0 | 0 | 0
CO[C@H]1CC[C@H](N(c2cc(C3=CCCCC3)sc2C(=O)O)C(=O)[C@H]2CC[C@H](C)CC2)CC1 [VCH-916] | 92.2 | 93.4 | 105 | 95.5 | 105 | 90.8 | 110 | 107 | 97.5 | 104 | 103 | 92.8 | 110 | 110 | 114 | 96.2 | 98.7 | 98.6 | 98.6 | 101 | 96.9 | 95.7 | 98.8 | 103 | 110 | > 10 | > 10 | > 10 | > 10 | > 10 | 0 | 0 | 0 | 0 | 0
CCC(=O)NO [ZAMI-633] | 100 | 96.7 | 93.4 | 96.8 | 127 | 101 | 102 | 94.2 | 93.6 | 97.2 | 110 | 97 | 104 | 90.6 | 85.1 | 97.5 | 97.9 | 92.8 | 93.3 | 105 | 110 | 95 | 109 | 97.1 | 89 | > 10 | > 10 | > 10 | > 10 | > 10 | 0 | 0 | 0.9 | 0 | 0.1
O=C(C[S+]([O-])C(c1ccccc1)c1ccccc1)NO (stereo not given) [adrafinil] | 93.8 | 91.1 | 91.6 | 103 | 101 | 103 | 110 | 98.4 | 107 | 108 | 97.6 | 88.7 | 97.2 | 96.1 | 102 | 97.9 | 102 | 97.9 | 107 | 99.8 | 93.5 | 85.5 | 93.8 | 93 | 107 | > 10 | > 10 | > 10 | > 10 | > 10 | 0 | 0 | 0 | 0 | 0
CC[C@H]1[C@@H]2C[C@H]3[C@@H]4N(C)c5ccccc5[C@]45C[C@@H]([C@@H]2[C@H]5O)N3[C@@H]1O [ajmaline] | 101 | 94 | 94.9 | 90.6 | 88 | 101 | 108 | 91.9 | 104 | 108 | 92 | 90 | 95 | 105 | 94.7 | 96 | 101 | 95.7 | 102 | 97.5 | 96.1 | 95 | 105 | 99.5 | 88.9 | > 10 | > 10 | > 10 | > 10 | > 10 | 0.1 | 0 | 0 | 0 | 0
CNC(=O)c1ccc(N2C(=S)N(c3cnc(C#N)c(C(F)(F)F)c3)C(=O)C23CCC3)cc1F [apalutamide] | 104 | 107 | 94.1 | 90.6 | 93.5 | 106 | 103 | 103 | 102 | 97.1 | 99.5 | 107 | 112 | 109 | 104 | 98 | 98.6 | 96.7 | 97.7 | 96.9 | 104 | 107 | 99.3 | 105 | 98.8 | > 10 | > 10 | > 10 | > 10 | > 10 | 0 | 0 | 0 | 0 | 0
C#CCOC(=O)C1=CCCN(C)C1 [arecaidine-propargyl-ester] | 91.4 | 98.4 | 94.4 | 98 | 103 | 100 | 103 | 95.2 | 100 | 95.6 | 95.1 | 95.5 | 101 | 102 | 102 | 98 | 93.2 | 99.3 | 102 | 101 | 97.4 | 99 | 95 | 98.4 | 107 | > 10 | > 10 | > 10 | > 10 | > 10 | 0 | 0 | 0 | 0 | 0
